Measurements taken from article PMC9822434, “Estradiol-Based Salicylaldehyde (Thio)Semicarbazones and Their Copper Complexes with Anticancer, Antibacterial and Antioxidant Activities” (Molecules, 2022).
Where two headings read alike, the source gives them in different places.

What was measured:
[1] = direct redox reaction of the Cu(II) complexes with GSH (UV–vis, anaerobic); format: physicochemical; settings: Cu(II) complex (25 µM) of the named ligand with GSH (1.25 mM), pH 7.4, anaerobic, 30% (v/v) DMSO/H2O, 25.0 °C
Procedure: (§1) The redox reaction of the Cu(II) complexes with GSH and ascorbic acid was studied at 25.0 ± 0.1 °C, at pH 7.40 (10 mM HEPES with 0.1 M KCl) on an Agilent Cary 8454 diode array spectrophotometer using a special, tightly closed tandem cuvette (Hellma Tandem Cell, 238-QS). The complex and the reducing agent were separated until the reaction was triggered. Both isolated pockets of the tandem cuvette were completely deoxygenated by bubbling argon for 10 min before mixing the reactants. Spectra were recorded before and then immediately after the mixing, and changes were followed till no further absorbance change was observed. The stock solutions of the reducing agents and the complexes were freshly prepared every day.
During the calculations, the absorbance (A)−time (t) curves were fitted and analyzed at the λmax of the complex. (A0 − Afinal) × e ^(−a×t) + Afinal equation was used where A0, Afinal and a parameters were refined and accepted at the minimal value of the weighted sum of squared residuals (difference between the measured and calculated absorbance values) at the given wavelength. Then observed rate constants (kobs) of the redox reaction were obtained from the data points of the simulated absorbance–time curves as the slope of the ln(A/A0) versus t plots.

[2] = direct redox reaction of the Cu(II) complexes with ascorbic acid (UV–vis, anaerobic); format: physicochemical; settings: Cu(II) complex 25 µM, 50 equiv. ascorbic acid, pH 7.4, 30% (v/v) DMSO/H2O
Procedure: as §1

[3] = cyclic voltammetry of Cu(II)-(T)SC (1:1) systems; format: physicochemical; settings: 90% (v/v) DMSO/H2O, pH 7.40 (10 mM HEPES), 10 mV/s, 25 °C, I = 0.1 M (nBu4NPF6)
Procedure: Cyclic voltammograms of TSCs derivatives and their Cu(II) complexes at 25.0 ± 0.1 °C were recorded. nBu4NPF6 was used as a supporting electrolyte, and measurements were performed at pH 7.4. The complexes were obtained by mixing the ligand dissolved in DMSO with aqueous solution of CuCl2 in 1:1 ratio. The final concentration of stock was 1 mM. Measurements were performed on a conventional three-electrode system under argon atmosphere using an Autolab PGSTAT 204 potentiostat/galvanostat monitored with Metrohm’s Nova software. Samples were purged for 10 min with argon before recording the cyclic voltammograms. Platinum electrode was used as the working and auxiliary electrode and Ag/AgCl/3 M KCl as the reference electrode. The electrochemical system was calibrated with an aqueous solution of K3[Fe(CN)6] (E1/2 = +0.458 V vs. NHE). Redox potentials were obtained at 10 mV/s scan rate in the range of −1.3 to +0.8 V.

[4] = DPPH free radical scavenging assay; settings: for % Scavenging Effect: DPPH:compound = 1:1 ratio after 30 min, ethanol; for % Scavenging Effect / TEAC (Trolox equivalent antioxidant capacity): 25 °C; for IC50: in ethanol, T = 25 °C, cDPPH = 50 µM, ccompound = 5−50 µM; for TEAC (Trolox equivalent antioxidant capacity): DPPH assay in ethanol
Procedure: The DPPH (Sigma-Aldrich) free radical scavenging capacity was studied at 25.0 ± 0.1 °C on an Agilent Cary 3500 spectrophotometer with tightly closed tandem cuvette according to our approach with some modifications. The stock solution of DPPH (100 µM) was prepared in ethanol, and 0.5 mL of this solution was added to one pocket of the cuvette and 0.5 mL of the tested compound in different concentrations in ethanol was added to another. The final concentration of the studied compounds was in the range 5–50 µM, where for DPPH concentration, it was always 50 µM. A standard compound Trolox (Sigma-Aldrich) was used as a positive control. The percentage of the antioxidant activity (AA), IC50 values (the concentration of compound at which it reduced 50% of DPPH) and Trolox equivalent antioxidant capacity (TEAC) were calculated.

[5] = system: E. faecalis ATCC 29212; test: MIC determination; format: cell-based, Enterococcus faecalis; settings: Gram-positive E. faecalis ATCC 29212; Mueller Hinton Broth
Procedure: (§2) Klebsiella pneumoniae (ATCC 49619), Escherichia coli (ATCC 25922), Staphylococcus aureus (ATCC 25928) and Enterococcus faecalis (ATCC 29212) strains were used as Gram-negative and Gram-positive bacterial cultures. The stock solutions of the tested compounds (dissolved in 90% (v/v) DMSO/H2O at 10 mM concentration) were diluted in 100 μL of Mueller Hinton Broth, and then two-fold serial dilutions were performed. As a starting point, 100 μM concentration of the compounds was used. Then, 10^−4 dilution of an overnight bacterial culture in 100 μL of medium was added to each well, with the exception of the medium control wells. Minimum inhibitory concentration (MIC) values of compounds were determined according to our previous work.

[6] = system: S. aureus ATCC 25928; test: MIC determination; format: cell-based, Staphylococcus aureus; settings: Gram-positive S. aureus ATCC 25928; Mueller Hinton Broth
Procedure: as §2

[7] = system: A549; test: MTT cytotoxicity assay; format: cell-based, human; settings: for IC50: 24 h incubation time
Procedure: (§3) To test the biological effects of the Cu(II) complexes and the ligands on human cancer cells, DU-145 prostate, A549 lung, and MCF-7 breast adenocarcinoma cells, as well as the multidrug-resistant MCF-7 KCR breast cancer cells were utilized. All the cell lines were maintained in RPMI-1640 media (Biosera, Nuaille, France) complemented with 10% fetal bovine serum (FBS), 2 mM L-glutamine, 0.01% streptomycin and 0.005% penicillin, (Biosera, Nuaille, France) and were cultured under standard conditions in a 37 °C incubator at 5% CO2 and 95% humidity. The cell lines were originally obtained from ATCC.
(§4) The effect of the complexes and of their ligands alone on the viability (on the metabolic activity) of human cancer cells was assessed by MTT assay. The tested compounds were dissolved in 90% (v/v) DMSO/H2O at 10 mM concentration. Equimolar solutions of the ligand CuCl2 salt were used for the cytotoxicity assays. The metal salts without ligands were also tested. For this, 1 × 10^4 cells/well were seeded into 96-well plates and left to grow overnight. On the following day, cells were exposed to increasing concentrations of each compound (0; 2.5; 5; 10; 15; 20 µM). After a 24 h incubation, cells were washed with PBS buffer and then incubated with 0.5 mg/mL MTT (Sigma-Aldrich, St Louis, Missouri, MO, USA) for 1 h at 37 °C. The formazan crystals were solubilized in DMSO (Molar Chemicals, Halásztelek, Hungary), and the absorbance of samples was determined at 570 nm using a Synergy HTX plate reader (BioTek, Winooski, Vermont, VT, USA). Absorption corresponding to the untreated control samples was considered as 100%.

[8] = system: DU-145; test: MTT cytotoxicity assay; format: cell-based, human; settings: DU-145, MTT; for IC50: 24 h incubation time
Procedure: as §3, §4

[9] = system: MCF-7 KCR; test: MTT cytotoxicity assay; format: cell-based, human; settings: for IC50: 24 h incubation time
Procedure: as §3, §4

[10] = system: MCF-7; test: MTT cytotoxicity assay; format: cell-based, human; settings: MCF-7, MTT; for IC50: 24 h incubation time
Procedure: as §3, §4

[11] = system: A549 cells; test: DCFDA staining (intracellular ROS); format: cell-based, human; settings: A549, 20 µM, 6 h
Procedure: (§5) DCFDA staining assay was performed to measure the total intracellular ROS level upon treatments. For this, 1 × 10^5 cells/well were seeded onto coverslips (VWR International, Radnor, Pennsylvania, PA, USA) placed in 24-well plates and left to grow. […] After treatments, cells were washed with PBS then incubated for 1 h with 10 μM DCFDA solution. The fluorescence intensity of the samples was assessed by an OLYMPUS BX51 microscope with Olympus DP70 camera and was quantified using ImageJ software.

[12] = system: DU-145 cells; test: DCFDA staining (intracellular ROS); format: cell-based, human; settings: DU-145, 20 µM, 6 h
Procedure: as §5

[13] = system: MCF-7 KCR cells; test: DCFDA staining (intracellular ROS); format: cell-based, human; settings: 20 µM, 6 h
Procedure: as §5

[14] = system: A549, MCF-7, MCF-7 KCR and DU-145 cells; test: γH2AX immunostaining (DNA double-strand breaks); format: cell-based, human; settings: 20 µM, 3 h
Procedure: In order to determine the degree of DNA damage induced by the treatments, DNA double-strand breaks were visualized by γH2AX immunostaining. For this, 1 × 10^5 cells/well were seeded onto coverslips in 24-well plates. […] Then, cells were fixed with 4% formaldehyde (Molar Chemicals, Halásztelek, Hungary), permeabilized with 0.3% Triton-X-100 (Calbiochem, Merck Millipore, Darmstadt, Germany) and were blocked using 5% bovine serum albumin (BSA) (Sigma-Aldrich, St. Louis, MO, USA). Then, the samples were incubated with anti-γH2AX antibody (Thermo Fisher Scientific, Waltham, MA, USA) in 1:300 dilution followed by Alexa 488 fluorophore-conjugated goat anti-mouse secondary antibody (Abcam, Cambridge, UK) in 1:600 dilution. The fluorescence intensity of the stained samples was detected by an Olympus FV10i confocal microscope.

[15] = format: physicochemical; settings: cligand = 20 µM
Procedure: An Orion 710A pH-meter equipped with a Metrohm combined electrode (type 6.0234.100) and a Metrohm 665 Dosimat burette were used for the UV–vis titrations at 25.0 ± 0.1 °C. Ionic strength of 0.10 M (KCl) was used to keep the activity coefficients constant. The titrations were performed with carbonate-free KOH solution of known concentration (0.10 M) with 30% (v/v) DMSO content. […] The average water ionization constant (pKw) is 14.54 ± 0.05 in the 30% (v/v) DMSO/H2O mixture. Argon was always passed over the solutions during the titrations. An Agilent Cary 8454 diode array spectrophotometer was used to record the UV–vis spectra at an interval of 200–800 nm. The path length was 2 cm. Spectrophotometric titrations were performed using a 0.1 M KOH titrant solution with 30% (v/v) DMSO on samples with 30% (v/v) DMSO containing HCl, KCl and the ligand at 20 μM concentration in the pH range 2.0–12.5 in the absence or in the presence of 1 or 0.5 equiv. Cu(II) ions. Proton dissociation constants (Ka) of the TSC ligands, the overall stability constants (β) of the Cu(II) complexes and the UV–vis spectra of the individual species were calculated by the computer program PSEQUAD [41] as was done in our previous works.

[16] = system: MCF-7 breast cancer cell line; set-up: method as in doi:10.1039/D0NJ01070G, PMID 34453218, PMID 33951554; settings: cited from earlier work
[17] = cited from earlier work
[18] = Cu(II) complex (25 µM) with GSH (1.25 mM), pH 7.4, anaerobic; cited from earlier work
[19] = 30% (v/v) DMSO/H2O, T = 25.0 °C, I = 0.1 M (KCl)

formal potential E’ vs. Ag/AgCl/3M KCl [3] | IC50 [4] | MIC [5] | MIC [6] | Compound | % Scavenging Effect [4] | IC50 [7] | IC50 [8] | IC50 [9] | IC50 [10] | TEAC (Trolox equivalent antioxidant capacity) [4] | DNA double-strand breaks (γH2AX) vs untreated control cells [14] | also measured
+0.10 V | > 50 µM | >100 µM | 50 µM | C[C@]12CC[C@@H]3c4cc(/C=N/N=C(N)[O-])c([O-])cc4CC[C@H]3[C@@H]1CC[C@@H]2O.O.[Cu+2] [Cu(II)-estradiol-SC] | 8.5% | > 20 µM | > 20 µM | > 20 µM | > 20 µM | – | – | kobs [1]: rapid reduction of Cu(II); reduction by ascorbic acid (in words) [2]: remarkable spectral changes; effect on cell viability (in words) ([7]; up to 20 µM, 24 h): only slightly toxic; effect on cell viability (in words) ([8]; up to 20 µM, 24 h): neither the estradiol-SC nor the Cu(II)-estradiol-SC complex exhibit any harmful effect; effect on cell viability (in words) ([9]; up to 20 µM, 24 h): only slightly toxic; effect on cell viability (in words) ([10]; up to 20 µM, 24 h): neither the estradiol-SC nor the Cu(II)-estradiol-SC complex exhibit any harmful effect
+0.31 V | 15.7 µM | 12.5 µM | 3.125 µM | C[C@]12CC[C@@H]3c4cc(/C=N/N=C(N)[S-])c([O-])cc4CC[C@H]3[C@@H]1CC[C@@H]2O.O.[Cu+2] [Cu(II)-estradiol-TSC] | 90.8% | 10 ± 1.04 µM | > 20 µM | 13 ± 1.09 µM | 8.4 ± 1.11 µM | 0.8 | None of these treatments caused a higher degree of DNA damage | intracellular amount of ROS vs DMSO control [11]: significantly increased; intracellular amount of ROS vs DMSO control [12]: significantly increased; intracellular amount of ROS vs DMSO control [13]: significantly increased
– | 17.8 µM | >100 µM | >100 µM | CC12CCC3c4cc(C=NNC(N)=S)c(O)cc4CCC3C1CCC2=O (stereo not shown) [estrone-TSC, reference compound] | 49.8% | 16.7 ± 1.03 µM | > 20 µM | > 20 µM | > 20 µM | 0.7 | None of these treatments caused a higher degree of DNA damage | pCu5.0 ([15]; calculated at pH 5.0, cCu(II) = 20 µM): 7.7; pCu6.0 ([15]; estimated at pH 6.0, cCu(II) = 20 µM): 9.2; IC50 [16]: 6.4 µM; logβ [CuLH−1] [17, 19]: 9.44 ^2; logβ [CuL]+ [17, 19]: 13.18 ^2; pCu7.4 ([17]; pH 7.4, cCu(II) = 20 µM, cligand = 20 µM): 11.9 ^2; kobs [18]: 0.13 ^3 min^−1
